From US20220339260A1, “METHOD FOR PRODUCING INSULIN-PRODUCING CELL USING DIHYDROINDOLIZINONE DERIVATIVES” (TOKYO INSTITUTE OF TECHNOLOGY, priority 2019, published 2022)

Tested on: human iPS cell Toe strain
Experiment: Effect to promote differentiation from human iPS cells into insulin-producing cells (insulin-positive cell rate, Reference Example 1)
Type: cell-based
Set-up: key to Activity: the sum of activity values at the two concentrations was obviously higher than the control untreated with compounds while being lower than the positive control was expressed as +; the sum was equivalent to the positive control was expressed as ++; the sum was higher than the positive control was expressed as +++
Conditions: activity intensity: sum of activity values (increment in insulin-positive cell rate) at 2 μM and 10 μM compared with positive control (compound of Synthesis Example 1)
Excerpt: The evaluation system of the effect (efficacy) to promote differentiation from human iPS cells into insulin-producing cells was constructed with reference to known information (Non Patent Document 6). Further, the medium used in each differentiation stage was also produced with reference to known information (differentiation media A to E (Media A to E) described in Non Patent Document 6 were used respectively for stages 1 to 5; however, a medium free from GLP-1 receptor agonist and nicotinamide was used as differentiation medium E).
In order to evaluate the efficacy of each compound, the compound of Synthesis Example 1 was used as a positive control, and dimethylsulfoxide (DMSO) (SIGMA, D2650) with a final concentration of 0.1% was used as a control untreated with compounds. Each compound was dissolved in DMSO, and two types of compound solutions were prepared so as to have final concentrations of 2 μM and 10 μM after the compound was added to the medium. In the following evaluation, the compound solutions were added to the medium to 0.1% that is the final concentration of DMSO.
First, induction from human iPS cell Toe strain (National Institutes of Biomedical Innovation, Health and Nutrition) into cells on day 7 of culture (2 days after replacement with differentiation medium C (cells in the differentiation process from FOXA2-positive primitive gut tube cells into PDX1-positive pancreatic progenitor cells)) was performed according to the method of Non Patent Document 6 for “inducing differentiation from human iPS cells into pancreatic β cells”, and the cells were collected and thereafter stored in liquid nitrogen using Bambanker (NIPPON Genetics Co, Ltd.) at 1×10^7 cells/mL/tube, to produce a cell stock for evaluation. The cell stock was dissolved at the start of the evaluation of efficacy, suspended in differentiation medium C for stage 3 (DMEM high glucose (Life technologies, 11965092), 0.25 μM SANT-1, 0.1 μM LDN193189 (Stemgent, 04-0074), 10 μM SB431542, 2 μM Retinoic acid (Stemgent, 04-0021), 1% B27 serum free supplement (Life technologies, 17504044) and thereafter seeded in a 96-well plate (Corning, #3340) coated with Synthemax II (Corning, #5656) at 1×10^5 cells/well. After culturing for 2 days, the medium was removed, and new differentiation medium C for stage 3 with the compound or only DMSO added was added thereto at 100 μL/well. After culturing for 2 days, the medium was removed, and new differentiation medium D for stage 4 (DMEM high glucose, 0.1 μM LDN193189, 5 μM TGF-β type I receptor kinase inhibitor II (Calbiochem 616452), 0.3 μM (−)-indolactam V (Enzo life science ALX-420-011-C300), 1% B27 serum free supplement) with the compound or only DMSO added was added thereto at 100 μL/well. After culturing for 2 to 3 days, the medium was removed, and new differentiation medium E for stage 5 (GLP-1 receptor agonist and nicotinamide-free; Knockout […] (Life technologies, 12660012), 1% B27 serum free supplement) with the compound or only DMSO added was added thereto at 200 μL/well. After culturing for 2 days, the medium was removed, and a 4% paraformaldehyde phosphorus acid buffer (Wako, 163-20145) was added thereto at 150 μL/well and left standing for 30 to 60 minutes at room temperature to fix the cells. A phosphorus acid buffer (PBS) (Takara, T9181) containing 1% Triton X-100 (Sigma, T8787) was left standing for 15 minutes at room temperature, then washed with PBS-T (Takara, T9183), and was blocked for 1 hour using 20% Blocking One (Nacalai tesque, Tokyo, Japan) diluted with PBS-T at room temperature. After the removal of Blocking One, guinea pig anti-insulin antibody (Abcam, ab7842) diluted 200-fold with 20% Blocking One was added thereto at 50 μL/well, followed by standing at 4° C. overnight. […]

| Compound | Activity |
| --- | --- |
| O=C1CCC(C(=O)Nc2ncc(-c3ccc(Br)cc3)s2)n2cccc21 (stereo not drawn) [Example 47] | ++ |
| O=C1CCC(C(=O)Nc2ccc(-c3ccc(OC(F)(F)F)c(Cl)c3)cc2)n2cccc21 (stereo not drawn) [Example 76] | + |
| CC1(C(=O)Nc2ncc(-c3cccc(OC(F)(F)F)c3)s2)CCC(=O)c2cccn21 (stereo not drawn) [Example 72] | +++ |
| Cc1nc(NC(=O)C2CCC(=O)c3cccn32)sc1-c1ccc(OCC(F)(F)F)cc1 (stereo not drawn) [Example 88] | +++ |
| CN(C)C(=O)c1ccc(-c2cnc(NC(=O)C3CCC(=O)c4cccn43)s2)cc1 (stereo not drawn) [Example 3] | + |
| O=C1CCC(C(=O)Nc2ncc(-c3ccccc3)s2)n2cccc21 (stereo not drawn) [Example 1] | ++ |
| CC(C)(C)Oc1ccc(-c2cnc(NC(=O)C3CCC(=O)c4cccn43)s2)cc1 (stereo not drawn) [Example 11] | +++ |
| O=C1CCC(C(=O)Nc2ccc(-c3ccc(OC(F)(F)F)c(Cl)c3)cc2F)n2cccc21 (stereo not drawn) [Example 79] | + |
| O=C1CCC(C(=O)Nc2ncc(-c3ccc(OCC(F)(F)F)cc3)s2)n2cccc21 (stereo not drawn) [Example 45] | +++ |
| Cc1nc(NC(=O)C2CCC(=O)c3cccn32)sc1-c1ccccc1 (stereo not drawn) [Example 34] | ++ |
| O=C1CCC(C(=O)Nc2ncc(-c3ccc4c(c3)OC(F)(F)O4)s2)n2cccc21 (stereo not drawn) [Example 40] | +++ |
| CN(C)S(=O)(=O)c1ccc(-c2cnc(NC(=O)C3CCC(=O)c4cccn43)s2)cc1 (stereo not drawn) [Example 42] | + |
| O=C1CCC(C(=O)Nc2ncc(-c3ccc(OC(F)F)cc3)s2)n2cccc21 (stereo not drawn) [Example 39] | +++ |
| O=C1CC(C(=O)Nc2ncc(-c3ccc(OC(F)(F)F)cc3)s2)n2cccc21 (stereo not drawn) [Example 58] | ++ |
| Cc1cc(-c2cnc(NC(=O)C3CCC(=O)c4cccn43)s2)ccc1OC(F)(F)F (stereo not drawn) [Example 29] | +++ |
| CC(=O)c1ccc(-c2cnc(NC(=O)C3CCC(=O)c4cccn43)s2)cc1 (stereo not drawn) [Example 57] | + |
| COC(=O)c1ccc(-c2cnc(NC(=O)C3CCC(=O)c4cccn43)s2)cc1 (stereo not drawn) [Example 2] | ++ |

| Compound | Activity |
| --- | --- |
| O=C1CCC(C(=O)Nc2ncc(-c3ccc(OC(F)(F)F)cc3)s2)n2cccc21 (stereo not drawn) [Example 9] | +++ |
| COCCOc1ccc(-c2cnc(NC(=O)C3CCC(=O)c4cccn43)s2)cc1 (stereo not drawn) [Example 38] | +++ |
| N#Cc1ccc(-c2cnc(NC(=O)C3CCC(=O)c4cccn43)s2)cc1 (stereo not drawn) [Example 7] | + |
| CC(C)Oc1ccc(-c2cnc(NC(=O)C3(C)CCC(=O)c4cccn43)s2)cc1 (stereo not drawn) [Example 69] | ++ |
| O=C1CCC(C(=O)Nc2ncc(-c3ccc(C(F)(F)F)cc3)s2)n2cccc21 (stereo not drawn) [Example 21] | +++ |
| O=C1CCC(C(=O)Nc2ncc(-c3ccccc3F)s2)n2cccc21 (stereo not drawn) [Example 17] | ++ |
| COC(=O)c1nc(NC(=O)C2CCC(=O)c3cccn32)sc1-c1ccc(OC(C)(C)C)cc1 (stereo not drawn) [Example 100] | + |
| O=C1CCC(C(=O)Nc2ncc(-c3ccccc3Cl)s2)n2cccc21 (stereo not drawn) [Example 14] | + |
| O=C1CCC(C(=O)Nc2ncc(-c3ccc(N4CCOCC4)cc3)s2)n2cccc21 (stereo not drawn) [Example 41] | + |
| O=C1CCC(C(=O)Nc2ccc(-c3ccc(OC(F)(F)F)cc3)cc2)n2cccc21 (stereo not drawn) [Example 73] | + |
| O=C1CCC(C(=O)Nc2ncc(-c3ccc(CO)cc3)s2)n2cccc21 (stereo not drawn) [Example 37] | + |
| Cc1ccc(-c2ccc(-c3cnc(NC(=O)C4CCC(=O)c5cccn54)s3)cc2)cc1 (stereo not drawn) [Example 23] | + |
| O=C1CCC(C(=O)Nc2ncc(-c3ccc(OCc4ccccc4)c(F)c3)s2)n2cccc21 (stereo not drawn) [Example 43] | +++ |
| COc1ccc(-c2cnc(NC(=O)C3CCC(=O)c4cccn43)s2)cc1 (stereo not drawn) [Example 26] | ++ |
| CC(C)C(=O)N1CC=C(c2cnc(NC(=O)C3CCC(=O)c4cccn43)s2)CC1 (stereo not drawn) [Example 97] | ++ |
| Cc1cc(-c2cnc(NC(=O)C3(C)CCC(=O)c4cccn43)s2)ccc1OC(F)(F)F (stereo not drawn) [Example 70] | ++ |
